Values of other authors, collected in US20080044439A1, “Compositions and Methods for Preventing and Treating Skin and Hair Conditions” (priority 2004, published 2008).

System: albino guinea pigs

Structure (SMILES): CC(C)Cn1cnc2c(N)nc3ccccc3c21 [imiquimod]
- fading the tattoo, macroscopically and histologically (5 percent cream applied every 6 hours for seven days, evaluated at seven and 28 days after tattoo placement, compared with petrolatum, tretinoin 0.025 percent, tretinoin alternated with imiquimod): most effective regimen for fading the tattoo
- biopsy evaluation of the treated site (guinea pig, in vivo): epidermal and dermal necrosis with separation, severe inflammation and fibrosis, and disruption of the skin appendages
